Tests used:
HIV 1-LAV = test: HIV replication in PHA-activated primary T cells, reverse transcriptase (RT) assay; type: cell-based
Protocol: (§1) Cell lysates were prepared for immunoprecipitation and immunoblotting 15 minutes after administration of LPS. In FIGS. 2B, 2C and 2D PHA-activated T cells were pretreated with control diluent or various concentrations of CNI-1493 for one hour, infected with HIV 1-LAV as in FIG. 1, and cultured for 10 days. FIG. 2B is a graph of dose-dependent inhibition by CNI-1493 of HIV-infection as assessed by the accumulation of reverse transcriptase (RT) at day 6 of culture. FIG. 2C is a graph of HIV inhibition by […] CNI-1493 over time. FIG. 2D is an immunoblot of phospho-p38 MAPK expression in HIV-1 infected cells on day 6 after culture treated with/without […] CNI-1493.
This example illustrates a role for the p38 MAP kinase pathway in HIV-1 infection of primary T cells, specifically addressing the hypothesis that activation of p38 MAPK is required for HIV-1 infection of primary T lymphocytes. For studies of human T cells, buffy coats were obtained by elutriation from normal human donors to the Long Island Blood Bank Services. Peripheral blood mononuclear cells (PBMC's) were isolated by density gradient centrifugation through Ficoll-Hypaque (Hypaque, Pharmacia). […]
Primary T cells activated with PHA were pretreated (or not) with CNI-1493 for one hour, infected with the LAV strain of HIV, and RT activity measured at various time points after infection, up to 10 days.

p38 MAP kinase = target: T1, p38 MAP kinase (Homo sapiens, UniProt Q16539); test: p38 MAP kinase activity (GST-ATF2 phosphorylation) in Jurkat cells stimulated with anti-CD3/anti-CD28; type: cell-based
T1 construct: Endogenous p38 was immunoprecipitated with polyclonal p38 antibody; endogenous in cells; host or cells: Jurkat cells (ATCC)
T1 sequence (Q16539 whole entry): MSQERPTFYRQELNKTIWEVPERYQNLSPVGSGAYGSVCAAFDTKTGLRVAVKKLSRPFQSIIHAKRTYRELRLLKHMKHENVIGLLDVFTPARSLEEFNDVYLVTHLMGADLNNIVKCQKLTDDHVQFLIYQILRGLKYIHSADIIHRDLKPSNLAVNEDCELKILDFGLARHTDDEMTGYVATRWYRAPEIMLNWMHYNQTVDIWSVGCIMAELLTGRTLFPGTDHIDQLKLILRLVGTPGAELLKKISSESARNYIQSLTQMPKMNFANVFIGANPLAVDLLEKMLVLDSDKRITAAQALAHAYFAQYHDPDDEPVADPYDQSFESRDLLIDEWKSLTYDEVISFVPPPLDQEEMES
Excerpt: For studies of human T cells, buffy coats were obtained by elutriation from normal human donors to the Long Island Blood Bank Services. Peripheral blood mononuclear cells (PBMC's) were isolated by density gradient centrifugation through Ficoll-Hypaque (Hypaque. Pharmacia); typically one preparation yielded 200×10^6 cells. T cells were isolated by passing through a T cell column (R&D) as per manufacturer's instructions. Jurkat cells were obtained from ATCC and maintained in DMEM containing 10% heat-inactivated fetal bovine serum, antibiotics and L-glutamine.
A rabbit polyclonal antibody against p38, and the recombinant GST-AFT2 plasmid where a gift of Dr. Roger Davis (Howard Hughes Institute, Worcester, Mass.). A GST-AFT2 fusion protein was purified by affinity chromatography using glutatione-agarose, as per manufacturer's instructions (Pharmacia, Inc.). The human monoclonal anti-CD3 antibody was purchased from Pharmingen and a human monoclonal anti-CD28 antibody was purchased.
Whole cell lysates were prepared using kinase lysis buffer, containing a final concentration of 20 mM Tris pH 7.5, 10% glycerol, 1% Triton X-100, 0.137M NaCl, 25 mM B-glycerophosphate, 2 mM EDTA, 1 mM orthovanadate, 2 mM pyrophosphate, 10 μg/ml Leupeptin, 1 mM PMSF. Proteins were fractionated on a 12% SDS-PAGE gel, transferred by electrophoresis to PVDF membranes (Biorad, Inc.) and probed with a 1:1000 dilution of a rabbit polyclonal antibody that immunospecifically recognizes phosphorylated human p38 MAPK (Santa Cruz Biotechnology, Inc.). Binding to antibody was detected using enhanced chemiluminescence (Amersham International PLC).
2-5×10^6 cells were lysed after appropriate pretreatment in 500-1000 μl kinase lysis buffer and centrifuged at 14,000×g for 15 minutes at 4° C. Endogenous p38 was immunoprecipitated with polyclonal p38 antibody prebound to protein-A agarose for one hour at room temp. […]

p38 MAPK [1] = target: T2, p38 MAPK (Homo sapiens, UniProt Q16539); test: p38 MAPK activity in human PBMC's after addition of LPS; type: cell-based; conditions: human PBMC's pretreated with compound
T2 construct: endogenous in cells; host or cells: human PBMCs
T2 sequence (Q16539 whole entry): as above
Excerpt: (§2) This example illustrates an experiment showing that an exemplary guanylhydrazone-substituted compound, CNI-1493 (N,N′-bis(3,5-diacetylphenyl)decanediamide tetrakis(amidinohydrazone) tetrahydrochloride) inhibited the p38 MAP kinase pathway. […] Further evidence for the mechanism of translation suppression was given by experiments using constructs in which the 5′UTR and the 3′UTR of TNF to drive expression of a reporter molecule. Both the 5′UTR and the 3′UTR regions of the TNF gene were required to elicit maximal translation suppression by CNI-1493. The effect of CNI-1493 on p38 MAPK was next determined as p38 MAPK has been implicated in the regulation of TNF translation.

TNF = TNF production by macrophages activated by LPS; type: cell-based
Excerpt: as §2

MIP 1α and MIP 1β = test: MIP-1α and MIP-1β levels by sandwich ELISA in HIV 1-LAV infected primary T cells; type: cell-based, human
Protocol: Assays were done in triplicate and error bars represent standard deviation of the mean.
Because ideal anti-HIV therapies would not interfere with the ability of the host to mount its own defense, it was also evaluated whether inhibition of the p38 MAP kinase signal transduction pathway inhibits chemokine production in T cells. Levels of MIP 1α and MIP 1β during LAV infection of primary T cells were not decreased by CNI-1493 (FIG. 4). MIP 1α and 1β levels dropped slightly late in HIV-1 infection (day 9).

human T lymphocytes = test: T lymphocyte activation measured by IL-2 synthesis after a-CD3 and a-CD28 stimulation; type: cell-based; conditions: human T lymphocytes stimulated with a-CD3 and a CD28
Excerpt: Without being limited by any theory regarding the mode of action of the multivalent guanylhydrazones, these compounds may work by disrupting the p38 MAPK pathway. p38 MAP kinase pathway plays a critical role in the activation of human T lymphocytes and this pathway is inhibited by the multivalent guanylhydrazone compounds. […] The activation of the p38 MAP kinase pathway was inhibited by the addition of a multivalent guanylhydrazone to the stimulated T lymphocytes. […] In addition, the assays of the present invention may include other in vivo assays to measure the effects of the test compounds on T cell activation. For example, test compounds may be assayed for their ability to inhibit activation of T cells. In such assays, test compounds may be added to T cells co-stimulated with a-CD3 and a-CD28. The stimulation of the T cells should result in the synthesis and secretion of cytokines, such as IL-2.

p38 MAPK [2] = test: phospho-p38 MAPK levels in HIV-1 infected T cells (immunoprecipitation/immunoblot); type: cell-based, human
Protocol: as §1
T cells were infected with HIV 1-LAV in the presence of […] 18-mer, refed every 3-4 days with media containing fresh oligomer and supernatants collected at various time points for RT assay. Simultaneously, cells were also plated, treated similarly and harvested for phospho-p38 MAPK levels assayed by immunoprecipitation at various time points as measured by RT assay. Shown in this figure is the effect of addition of sense and antisense p38 MAPK oligonucleotide on phospho-p38 levels and its correlation with HIV replication, as measured by RT.
Whole cell lysates were prepared using kinase lysis buffer containing a final concentration of 20 mM Tris pH 7.5, 10% glycerol, 1% Triton X-100, 0.137M NaCl, 25 mM B-glyceropliospliate. […]

HIV-1 = conditions: AIDS patients; cited from earlier work
[3] = 1 μM 18-mer, day 7 and day 10 after infection, FIG. 3

With `CC(=NNC(=N)N)c1cc(NC(=O)CCCCCCCCC(=O)Nc2cc(C(C)=NNC(=N)N)cc(C(C)=NNC(=N)N)c2)cc(C(C)=NNC(=N)N)c1.Cl.Cl.Cl.Cl` [CNI-1493, N,N′-bis(3,5-diacetylphenyl)decanediamide tetrakis(amidinohydrazone) tetrahydrochloride] the IC50 (HIV 1-LAV; primary T cells activated with PHA, pretreated one hour, LAV strain of HIV, RT activity, FIG. 2B, read-out: IC50 of inhibition of HIV replication in T-cells) was about 500 nM, the “effect on anti-CD3 stimulated p38 MAPK activity” value (p38 MAP kinase; anti-CD3 alone) was “unaffected” and the “inhibition of stimulated p38 MAPK activity” value (p38 MAP kinase; anti-CD28 stimulation (as worded: stimulation of p38 MAPK), dose of 1.5 μM) was “approximately 50%”. For the same compound, the “inhibition of p38 MAPK activity on co-stimulation with anti-CD3 and anti-CD28” value (p38 MAP kinase; dose of 1.5 μM) was “inhibited completely”, the “p38 MAPK activity after the addition of LPS” value (p38 MAPK [1]) was “suppression of p38 MAPK activity” and the “TNF production by macrophages activated by LPS” value (TNF) was “inhibit TNF production”. For the same compound, the “synthesis of 26 kDA membrane form of TNF” value (TNF) was “blocked the synthesis”, the “level of MIP 1α during LAV infection of primary T cells” value (MIP 1α and MIP 1β; FIG. 4) was “not decreased” and the “level of MIP 1β during LAV infection of primary T cells” value (MIP 1α and MIP 1β; FIG. 4) was “not decreased”. For the same compound, the “chemokine levels (MIP 1α and 1β) day 6” value (MIP 1α and MIP 1β; day 6 of HIV-1 infection) was “slightly elevated”, the “chemokine levels (MIP 1α and 1β) day 9” value (MIP 1α and MIP 1β; day 9 of HIV-1 infection) was “normal” and the “activation of T lymphocytes as measured by IL-2 synthesis” value (human T lymphocytes) was “inhibition of activation of the T lymphocytes”. The “p38 MAP kinase activity in HIV-infected T cells” value (p38 MAPK [2]; 1 μM, FIGS. 2C, 2D) was “suppression of p38 MAP kinase activity”.

With “p38 MAP kinase antisense oligonucleotides: 18-mer phosphothiorate oligonucleotide, antisense to bp 324-341 of human p38 MAPK, 5′GTCTTGTTCAGCTCCTGC3′” the “HIV replication as measured by RT” value (HIV 1-LAV; [3]) was “decreased HIV replication” and the “phospho-p38 MAPK activity” value (p38 MAPK [2]; [3]) was “decrease in phospho-p38 MAPK activity”.

For `CC(C)c1nc(CN(C)C(=O)N[C@H](C(=O)N[C@@H](Cc2ccccc2)C[C@H](O)[C@H](Cc2ccccc2)NC(=O)OCc2cncs2)C(C)C)cs1` [ABT-538], the CD4 lymphocyte counts (HIV-1) is listed as “rise substantially” and the “plasma HIV-1 levels” value (HIV-1) is listed as “decrease exponentially”.

From patent US7741372B2, “Guanylhydrazones useful for treating diseases associated with T cell activation” (Cytokine PharmaSciences, Inc., priority 1996, dated 2010)
